Measurements from patent publication US9695155B2, “Herbicidal substituted pyrimidinyloxy benzene compounds” (E. I. DU PONT DE NEMOURS AND COMPANY, priority 2013, dated 2017).

Assays:
giant foxtail = test: Test A preemergence; format: in vivo, Setaria faberii; conditions: for Foxtail, Giant plant response rating: 500 g ai/ha
Summary of the method: (§1)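 Visual injury scored 0–100 (100 = complete control) against untreated controls about 10 days after treatment in a greenhouse. Test chemicals, formulated with surfactant in non-phytotoxic solvent, were sprayed on soil preemergence or on 2-10 cm, one- to two-leaf plants postemergence.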

morningglory [1] = test: Test A preemergence; format: in vivo, Ipomoea spp.; conditions: for Morningglory plant response rating: 500 g ai/ha
Summary of the method: as §1

velvetleaf [2] = test: Test A preemergence; format: in vivo, Abutilon theophrasti; conditions: for Velvetleaf plant response rating: 500 g ai/ha
Summary of the method: as §1

wheat = test: Test A preemergence; format: in vivo, Triticum aestivum; conditions: for Wheat plant response rating: 500 g ai/ha
Summary of the method: as §1

morningglory [3] = test: Test A postemergence; format: in vivo, Ipomoea spp.; conditions: 0 to 100 scale where 0 is no effect and 100 is complete control
Summary of the method: as §1

velvetleaf [4] = test: Test A postemergence; format: in vivo, Abutilon theophrasti; conditions: 0 to 100 scale where 0 is no effect and 100 is complete control
Summary of the method: as §1

corn = test: Test A postemergence; format: in vivo, Zea mays
Summary of the method: as §1

blackgrass = test: Test C postemergence; format: in vivo, Alopecurus myosuroides
Summary of the method: (§2)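 Preemergence: seeds sown in a loam soil–sand blend and sprayed with test chemical in a non-phytotoxic solvent mixture containing surfactant. Postemergence: plants at 2 to 18 cm (1- to 4-leaf stage) in peat-based medium, treated with the same formulation. Greenhouse 13 to 15 days, then visual rating 0 (no effect) to 100 (complete control).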

wheat, winter = test: Test C postemergence; format: in vivo, Triticum aestivum
Summary of the method: as §2

galium = test: Test C postemergence; format: in vivo, Galium aparine
Summary of the method: as §2

johnsongrass = test: Test C postemergence; format: in vivo, Sorghum halepense
Summary of the method: as §2

pigweed = test: Test C postemergence; format: in vivo, Amaranthus retroflexus
Summary of the method: as §2

ragweed = test: Test C postemergence; format: in vivo, Ambrosia elatior
Summary of the method: as §2

soybean = test: Test C postemergence; format: in vivo, Glycine max
Summary of the method: as §2

oilseed rape = test: Test C postemergence; format: in vivo, Brassica napus
Summary of the method: as §2

waterhemp = test: Test C postemergence; format: in vivo, Amaranthus rudis
Summary of the method: as §2

kochia = test: Test C postemergence; format: in vivo, Kochia scoparia
Summary of the method: as §2

velvetleaf [5] = test: Test C postemergence; format: in vivo, Abutilon theophrasti
Summary of the method: as §2

[6] = 0 to 100 scale where 0 is no effect and 100 is complete control
[7] = 125 g ai/ha, 0 to 100 scale where 0 is no effect and 100 is complete control
[8] = 16 g ai/ha, postemergence, 0 is no effect, 100 is complete control
[9] = 31 g ai/ha, postemergence, visual rating, scale 0 to 100 (0 no effect, 100 complete control), 13 to 15 days
[10] = 125 g ai/ha, postemergence, visual rating, scale 0 to 100 (0 no effect, 100 complete control)
[11] = Postemergence, 62 g ai/ha, scale 0 to 100 (0 no effect, 100 complete control)
[12] = 0 to 100 scale, 0 no effect, 100 complete control, approx. 10 days
[13] = Postemergence, 31 g ai/ha, scale 0 to 100 (0 no effect, 100 complete control), 13 to 15 days

In the case of `Clc1cnc(Oc2cccc(Cl)c2-n2cc(I)cn2)nc1` [Compound 181], the “Foxtail, Giant plant response rating (0 to 100 scale)” value (giant foxtail; 125 g ai/ha) is reported as 90, the “Foxtail, Giant plant response rating” value (giant foxtail; [6]) is reported as 100 and the “Morningglory plant response rating (0 to 100 scale)” value (morningglory [1]; 125 g ai/ha) is reported as 0. The “Morningglory plant response rating” value (morningglory [1]; [6]) was 30, the “Velvetleaf plant response rating (0 to 100 scale)” value (velvetleaf [2]; 125 g ai/ha) was 20 and the “Velvetleaf plant response rating” value (velvetleaf [2]; [6]) was 40. The “Wheat plant response rating (0 to 100 scale)” value (wheat; 125 g ai/ha) was 0, the “Wheat plant response rating” value (wheat; [6]) was 10 and the “Morningglory plant response rating” value (morningglory [3]; 125 g ai/ha) was 90. The “Plant response rating, Morningglory” value (morningglory [3]; 500 g ai/ha) was 100, the “Velvetleaf plant response rating” value (velvetleaf [4]; 125 g ai/ha) was 100 and the “Plant response rating, Velvetleaf” value (velvetleaf [4]; 500 g ai/ha) was 100. For the same compound, the “Corn plant response rating” value (corn; [7]) was 40, the “Plant response rating, Corn” value (corn; 500 g ai/ha, 0 to 100 scale where 0 is no effect and 100 is complete control) was 40 and the “Plant response rating (0 to 100), Blackgrass” value (blackgrass; [8]) was 5. The “Blackgrass plant response rating” value (blackgrass; [9]) was 5, the “Plant response rating, Blackgrass” value (blackgrass; [10]) was 25 and the “Plant response rating, Blackgrass” value (blackgrass; [11]) was 15. The “Plant response rating (0 to 100), Wheat” value (wheat, winter; [8]) was 0, the “Wheat plant response rating” value (wheat, winter; [9]) was 0 and the “Plant response rating, Wheat” value (wheat, winter; [10]) was 5. The “Plant response rating, Wheat” value (wheat, winter; [11]) was 0, the “Plant response rating (0 to 100), Galium” value (galium; [8]) was 60 and the “Galium plant response rating” value (galium; [9]) was 65. The “Plant response rating, Galium” value (galium; [10]) was 80, the “Plant response rating, Galium” value (galium; [11]) was 70 and the “Plant response rating (0 to 100), Johnsongrass” value (johnsongrass; [8]) was 0. For the same compound, the “Johnsongrass plant response rating” value (johnsongrass; [9]) was 5, the “Plant response rating, Johnsongrass” value (johnsongrass; [10]) was 20 and the “Plant response rating, Johnsongrass” value (johnsongrass; [11]) was 5. For the same compound, the “Plant response rating (0 to 100), Pigweed” value (pigweed; [8]) was 85, the “Pigweed plant response rating” value (pigweed; [9]) was 98 and the “Plant response rating, Pigweed” value (pigweed; [10]) was 98. For the same compound, the “Plant response rating, Pigweed” value (pigweed; [11]) was 85, the “Plant response rating (0 to 100), Ragweed” value (ragweed; [8]) was 5 and the “Ragweed plant response rating” value (ragweed; [9]) was 35. For the same compound, the “Plant response rating, Ragweed” value (ragweed; [10]) was 45, the “Plant response rating, Ragweed” value (ragweed; [11]) was 30 and the “Plant response rating (0 to 100), Soybean” value (soybean; [8]) was 35. The “Soybean plant response rating” value (soybean; [9]) was 50, the “Plant response rating, Soybean” value (soybean; [10]) was 95 and the “Plant response rating, Soybean” value (soybean; [11]) was 50. For the same compound, the “Plant response rating (0 to 100), Oilseed Rape” value (oilseed rape; [8]) was 55, the “Oilseed Rape plant response rating” value (oilseed rape; [9]) was 60 and the “Plant response rating, Oilseed Rape” value (oilseed rape; [10]) was 100. For the same compound, the “Plant response rating, Oilseed Rape” value (oilseed rape; [11]) was 60, the “Plant response rating (0 to 100), Waterhemp” value (waterhemp; [8]) was 80 and the “Waterhemp plant response rating” value (waterhemp; [9]) was 85. For the same compound, the “Plant response rating, Waterhemp” value (waterhemp; [10]) was 98, the “Plant response rating, Waterhemp” value (waterhemp; [11]) was 85 and the “Plant response rating (0 to 100), Kochia” value (kochia; [8]) was 70. For the same compound, the “Kochia plant response rating” value (kochia; [9]) was 100, the “Plant response rating, Kochia” value (kochia; [10]) was 100 and the “Plant response rating, Kochia” value (kochia; [11]) was 100. For the same compound, the “Plant response rating (0 to 100), Velvetleaf” value (velvetleaf [5]; [8]) was 25, the “Velvetleaf plant response rating” value (velvetleaf [5]; [9]) was 20 and the “Plant response rating, Velvetleaf” value (velvetleaf [5]; [10]) was 70. The “Plant response rating, Velvetleaf” value (velvetleaf [5]; [11]) was 40.

For `N#Cc1cccc(Oc2ncc(Cl)cn2)c1-n1cc(Cl)cn1` [Compound 72], the “Plant response rating, Foxtail, Giant” value (giant foxtail; [7]) was 100, the “Foxtail, Giant plant response rating” value (giant foxtail; [12]) was 100 and the “Plant response rating, Morningglory” value (morningglory [1]; [7]) was 80. The “Morningglory plant response rating” value (morningglory [1]; [12]) was 100, the “Plant response rating, Velvetleaf” value (velvetleaf [2]; [7]) was 90 and the “Velvetleaf plant response rating” value (velvetleaf [2]; [12]) was 100. The “Plant response rating, Wheat” value (wheat; [7]) was 20, the “Wheat plant response rating” value (wheat; [12]) was 60 and the “Plant response rating, Morningglory” value (morningglory [3]; 125 g ai/ha) was 90. The “Plant response rating, Morningglory” value (morningglory [3]; 500 g ai/ha) was 100, the “Plant response rating, Velvetleaf” value (velvetleaf [4]; 125 g ai/ha) was 100 and the “Plant response rating, Velvetleaf” value (velvetleaf [4]; 500 g ai/ha) was 100. For the same compound, the “Plant response rating, Corn” value (corn; [7]) was 50, the “Plant response rating, Corn” value (corn; 500 g ai/ha, 0 to 100 scale, 0 no effect, 100 complete control) was 60 and the “Plant response rating (0 to 100), Blackgrass” value (blackgrass; 125 g ai/ha, postemergence) was 15. For the same compound, the “Plant response rating (0 to 100), Blackgrass” value (blackgrass; 250 g ai/ha, postemergence) was 15, the “Plant response rating, Blackgrass” value (blackgrass; [13]) was 10 and the “Plant response rating, Blackgrass” value (blackgrass; [11]) was 10. The “Plant response rating (0 to 100), Wheat” value (wheat, winter; 125 g ai/ha, postemergence) was 0, the “Plant response rating (0 to 100), Wheat” value (wheat, winter; 250 g ai/ha, postemergence) was 5 and the “Plant response rating, Wheat” value (wheat, winter; [13]) was 0. For the same compound, the “Plant response rating, Wheat” value (wheat, winter; [11]) was 0, the “Plant response rating (0 to 100), Galium” value (galium; 125 g ai/ha, postemergence) was 95 and the “Plant response rating (0 to 100), Galium” value (galium; 250 g ai/ha, postemergence) was 95. The “Plant response rating, Galium” value (galium; [13]) was 75, the “Plant response rating, Galium” value (galium; [11]) was 80 and the “Plant response rating (0 to 100), Johnsongrass” value (johnsongrass; 125 g ai/ha, postemergence) was 5. The “Plant response rating (0 to 100), Johnsongrass” value (johnsongrass; 250 g ai/ha, postemergence) was 25, the “Plant response rating, Johnsongrass” value (johnsongrass; [13]) was 0 and the “Plant response rating, Johnsongrass” value (johnsongrass; [11]) was 5. For the same compound, the “Plant response rating (0 to 100), Pigweed” value (pigweed; 125 g ai/ha, postemergence) was 85, the “Plant response rating (0 to 100), Pigweed” value (pigweed; 250 g ai/ha, postemergence) was 95 and the “Plant response rating, Pigweed” value (pigweed; [13]) was 70. For the same compound, the “Plant response rating, Pigweed” value (pigweed; [11]) was 80, the “Plant response rating (0 to 100), Ragweed” value (ragweed; 125 g ai/ha, postemergence) was 60 and the “Plant response rating (0 to 100), Ragweed” value (ragweed; 250 g ai/ha, postemergence) was 60. For the same compound, the “Plant response rating, Ragweed” value (ragweed; [13]) was 40, the “Plant response rating, Ragweed” value (ragweed; [11]) was 40 and the “Plant response rating (0 to 100), Soybean” value (soybean; 125 g ai/ha, postemergence) was 90. For the same compound, the “Plant response rating (0 to 100), Soybean” value (soybean; 250 g ai/ha, postemergence) was 95, the “Plant response rating, Soybean” value (soybean; [11]) was 80 and the “Plant response rating (0 to 100), Oilseed Rape” value (oilseed rape; 125 g ai/ha, postemergence) was 70. The “Plant response rating (0 to 100), Oilseed Rape” value (oilseed rape; 250 g ai/ha, postemergence) was 90, the “Plant response rating, Oilseed Rape” value (oilseed rape; [13]) was 55 and the “Plant response rating, Oilseed Rape” value (oilseed rape; [11]) was 70. The “Plant response rating (0 to 100), Waterhemp” value (waterhemp; 125 g ai/ha, postemergence) was 75, the “Plant response rating (0 to 100), Waterhemp” value (waterhemp; 250 g ai/ha, postemergence) was 95 and the “Plant response rating, Waterhemp” value (waterhemp; [13]) was 75. The “Plant response rating, Waterhemp” value (waterhemp; [11]) was 75, the “Plant response rating (0 to 100), Kochia” value (kochia; 125 g ai/ha, postemergence) was 95 and the “Plant response rating (0 to 100), Kochia” value (kochia; 250 g ai/ha, postemergence) was 95. The “Plant response rating, Kochia” value (kochia; [13]) was 90, the “Plant response rating, Kochia” value (kochia; [11]) was 90 and the “Plant response rating (0 to 100), Velvetleaf” value (velvetleaf [5]; 125 g ai/ha, postemergence) was 55. For the same compound, the “Plant response rating (0 to 100), Velvetleaf” value (velvetleaf [5]; 250 g ai/ha, postemergence) was 75, the “Plant response rating, Velvetleaf” value (velvetleaf [5]; [13]) was 40 and the “Plant response rating, Velvetleaf” value (velvetleaf [5]; [11]) was 40.
